# Experiments:
# Assay in all cases: MIC on standard strains, standard method of Japan Society of Chemotherapy
# Format in all cases: cell-based
# [1] = tested on: S. aureus 195; conditions: Staphylococcus aureus; S. aureus 195 (MRSA)
# Procedure: (§1) Antimicrobial activity of the compounds of the present invention were measured using CTM (cefotiam) and FMOX (flomoxef) as control drugs in accordance with the standard method of Japan Society of Chemotherapy. Of the 25 standard strains used in this test, Staphylococcus aureus 167 and Staphylococcus aureus 195 belong to MRSA.
# (§2) In these tables, drugs tested are shown by the corresponding examples in which they were synthesized.
# [2] = tested on: M. luteus ATCC 9341; conditions: Micrococcus luteus, ATCC9341
# Procedure: as §1, §2
# [3] = tested on: B. subtilis ATCC 6633; conditions: Bacillus subtilis, ATCC6633, B. subtilis ATCC 6633; read-out: MIC
# Procedure: as §1, §2
# [4] = tested on: E. coli CSH2(RE45); conditions: Escherichia coli
# Procedure: as §1, §2
# [5] = tested on: P. aeruginosa AKR17; conditions: Pseudomonas aeruginosa
# Procedure: as §1, §2
# [6] = tested on: E. coli NHIJ JC-2; conditions: Escherichia coli, NHIJJC2
# Procedure: as §1, §2
# [7] = tested on: C. freundii ATCC 8090; conditions: Citrobacter freundii, ATCC8090, C. freundii ATCC 8090; read-out: MIC
# Procedure: as §1, §2
# [8] = tested on: S. epidemidis IAM 1296
# Procedure: as §1, §2
# [9] = tested on: K. pneuminiae No. 42
# Procedure: as §1, §2
# [10] = tested on: S. marcescens No. 16-2; conditions: Serratia marcescens, NO.162
# Procedure: as §1, §2
# [11] = tested on: P. cepacia; conditions: Burkholderia cepacia, read-out: MIC
# Procedure: as §1, §2
# [12] = tested on: A. faecalis ATCC 3750; conditions: Alcaligenes faecalis, ATCC3750, A. faecalis ATCC 3750; read-out: MIC
# Procedure: as §1, §2
# [13] = tested on: A. calcoaceticos T59; conditions: read-out: MIC
# Procedure: as §1, §2
# [14] = tested on: E. coli CSH2(RK1); conditions: Escherichia coli
# Procedure: as §1, §2
# [15] = tested on: S. aureus 167; conditions: Staphylococcus aureus; S. aureus 167 (MRSA)
# Procedure: as §1, §2
# [16] = tested on: E. cloacae Nek39; conditions: Enterobacter cloacae, NEK39, E. cloacae Nek39; read-out: MIC
# Procedure: as §1, §2
# [17] = tested on: P. vulugaris OX-19
# Procedure: as §1, §2
# [18] = tested on: E. cloacae ATCC 13407; conditions: Enterobacter cloacae, ATCC13407, E. cloacae ATCC 13407; read-out: MIC
# Procedure: as §1, §2
# [19] = tested on: M. morganii IFO 3848; conditions: Morganella morganii, IFO3848
# Procedure: as §1, §2
# [20] = tested on: P. mirabilis IFO 3849; conditions: Proteus mirabilis, IFO3849, P. mirabilis IFO 3849; read-out: MIC
# Procedure: as §1, §2
# [21] = tested on: S. aureus Smith; conditions: Staphylococcus aureus, read-out: MIC
# Procedure: as §1, §2
# [22] = tested on: P. aeruginosa NCTC 10490; conditions: Pseudomonas aeruginosa, NCTC10490, P. aeruginosa NCTC 10490; read-out: MIC
# Procedure: as §1, §2
# [23] = tested on: S. marcescens IAM 1184; conditions: Serratia marcescens, IAM1184, S. marcescens IAM 1184; read-out: MIC
# Procedure: as §1, §2
# [24] = tested on: S. aureus 209p JC-1; conditions: Staphylococcus aureus, 209P, read-out: MIC
# Procedure: as §1, §2
# [25] = tested on: K. pneuminiae IFO 3317
# Procedure: as §1, §2
Compound,MIC [1] [µg/mL],MIC [2] [µg/mL],MIC [3] [µg/mL],MIC [4] [µg/mL],MIC [5] [µg/mL],MIC [6] [µg/mL],MIC [7] [µg/mL],MIC [8] [µg/mL],MIC [9] [µg/mL],MIC [10] [µg/mL],MIC [11] [µg/mL],MIC [12] [µg/mL],MIC [13] [µg/mL],MIC [14] [µg/mL],MIC [15] [µg/mL],MIC [16] [µg/mL],MIC [17] [µg/mL],MIC [18] [µg/mL],MIC [19] [µg/mL],MIC [20] [µg/mL],further results
"Nc1nc(/C(=N/O)C(=O)N[C@@H]2C(=O)N3C(C(=O)[O-])=C(C[n+]4ccc(-c5cncs5)cc4)CS[C@H]23)cs1 [Ex. 22, 7β-[2-(2-aminothiazol-4-yl)-2-syn-hydroxyiminoacetamido]-3-[4-(thiazol-5-yl)pyridinio]methyl-3-cephem-4-carboxylate]",0.78,0.025,0.2,0.1,> 100,0.1,0.1,0.1,0.1,25,> 100,1.56,12.5,0.2,1.56,25,0.1,0.78,0.025,0.1,MIC [21]: 0.2 µg/mL; MIC [22]: 3.13 µg/mL; MIC [23]: 0.1 µg/mL; MIC [24]: 0.2 µg/mL; MIC [25]: 0.05 µg/mL
"Nc1nc(/C(=N/O)C(=O)N[C@@H]2C(=O)N3C(C(=O)[O-])=C(C[n+]4cccc(-c5nsc(N)n5)c4)CS[C@H]23)cs1 [Ex. 12, 7β-[2-(2-aminothiazol-4-yl)-2-syn-hydroxyiminoacetamido]-3-[3-(5-amino-1,2,4-thiadiazol-3-yl)pyridinio]methyl-3-cephem-4-carboxylate]",1.56,0.025,0.2,0.39,> 100,0.39,0.39,0.05,0.78,100,> 100,1.56,12.5,0.78,6.25,100,0.39,3.13,0.1,0.39,MIC [21]: 0.39 µg/mL; MIC [22]: 6.25 µg/mL; MIC [23]: 0.78 µg/mL; MIC [24]: 0.2 µg/mL; MIC [25]: 0.2 µg/mL
"Nc1nc(/C(=N/O)C(=O)N[C@@H]2C(=O)N3C(C(=O)[O-])=C(C[n+]4ccc(-c5nnco5)cc4)CS[C@H]23)cs1 [Ex. 18, 7β-[2-(2-aminothiazol-4-yl)-2-syn-hydroxyiminoacetsmido]-3-[4-(1,3,4-oxadiazol-2-yl)pyridinio]methyl-3-cephem-4-carboxylate]",12.5,0.2,0.78,0.39,> 100,0.2,0.39,0.39,1.56,> 100,> 100,1.56,25,6.25,25,> 100,0.2,50,0.05,0.2,MIC [21]: 1.56 µg/mL; MIC [22]: 12.5 µg/mL; MIC [23]: 0.39 µg/mL; MIC [24]: 0.78 µg/mL; MIC [25]: 0.2 µg/mL
"NC(=O)Cc1ccc[n+](CC2=C(C(=O)[O-])N3C(=O)[C@@H](NC(=O)/C(=N\O)c4nsc(N)n4)[C@H]3SC2)c1 [Ex. 1, 7β-[2-(5-amino-1,2,4-thiadiazol-3-yl)-2-syn-hydroxyiminoacetamido]-3-(3-carbamoylmethylpyridinio)methyl-3-cephem-4-carboxylate]",12.5,0.2,0.39,3.13,> 100,1.56,1.56,0.39,1.56,> 100,> 100,6.25,3.13,3.13,12.5,100,3.13,3.13,1.56,1.56,MIC [21]: 1.56 µg/mL; MIC [22]: 0.78 µg/mL; MIC [23]: 0.78 µg/mL; MIC [24]: 0.78 µg/mL; MIC [25]: 0.78 µg/mL
